From the supplement of paper PMC11061612

Assays:
[1] = tested on: HT-144 (Melanoma); test: Bliss excess, mean over the matrix (fraction); higher = more synergy
Outline: (§1)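 Bliss excess equals the observed combination effect minus the expected value EA + EB − EA·EB, where EA and EB are the effects of each agent alone. Combination Emax is the second-highest inhibition within the matrix. Inhibition was scaled from CellTiter-Glo 2.0 luminescence, with 0 set by vehicle wells and 1 by blank wells, after 72 hours of two-drug dosing of cells plated in 1536-well plates.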

[2] = tested on: MG-63 (Osteosarcoma); test: as above
Outline: as §1

[3] = tested on: NCI-H2452 (Mesothelioma); test: as above
Outline: as §1

[4] = tested on: OCI-M1 (Acute Myeloid Leukemia); test: as above
Outline: as §1

[5] = tested on: ATN-1 (T-Lymphoblastic Leukemia); test: as above
Outline: as §1

[6] = tested on: NTERA-2-cl-D1 (Other Solid Carcinomas); test: as above
Outline: as §1

[7] = tested on: MDA-MB-175-VII (Breast Carcinoma); test: as above
Outline: as §1

[8] = tested on: NCI-H2023 (Non-Small Cell Lung Carcinoma); test: as above
Outline: as §1

[9] = tested on: HT-1197 (Bladder Carcinoma); test: combination Emax (second highest fraction inhibited in the dose matrix, 72 h); higher = more inhibition; extreme values may be limits of the assay
Outline: as §1

[10] = tested on: MRK-nu-1 (Breast Carcinoma); test: as above
Outline: as §1

[11] = tested on: SUP-HD1 (Hodgkin's Lymphoma); test: as above
Outline: as §1

[12] = tested on: KNS-62 (Squamous Cell Lung Carcinoma); test: as above
Outline: as §1

[13] = tested on: NCI-H2170 (Squamous Cell Lung Carcinoma); test: as above
Outline: as §1

[14] = tested on: GCIY (Gastric Carcinoma); test: as above
Outline: as §1

[15] = tested on: MDA-MB-175-VII (Breast Carcinoma); test: as above
Outline: as §1

[16] = tested on: NCI-H1435 (Non-Small Cell Lung Carcinoma); test: as above
Outline: as §1

[17] = tested on: IGROV-1 (Ovarian Carcinoma); test: as above
Outline: as §1

[18] = tested on: L-363 (Plasma Cell Myeloma); test: as above
Outline: as §1

[19] = tested on: HT-3 (Cervical Carcinoma); test: as above
Outline: as §1

[20] = tested on: GRANTA-519 (B-Cell Non-Hodgkin's Lymphoma); test: as above
Outline: as §1

Compound	Bliss excess [1]	Bliss excess [2]	Bliss excess [3]	Bliss excess [4]	Bliss excess [5]	Bliss excess [6]	Bliss excess [7]	Bliss excess [8]	combination Emax [9]	combination Emax [10]	combination Emax [11]	combination Emax [12]	combination Emax [13]	combination Emax [14]	combination Emax [15]	combination Emax [16]	combination Emax [17]	combination Emax [18]	combination Emax [19]	combination Emax [20]
CC1(C)CCC(CN2CCN(c3ccc(C(=O)NS(=O)(=O)c4ccc(NCC5CCOCC5)c([N+](=O)[O-])c4)c(Oc4cnc5[nH]ccc5c4)c3)CC2)=C(c2ccc(Cl)cc2)C1 [Venetoclax] + C1CN(CCC1(C(=O)N[C@@H](CCO)C2=CC=C(C=C2)Cl)N)C3=NC=NC4=C3C=CN4 [Capivasertib] (first compound max 1 µM, 7x7, partner max 3 µM)	-0.0575	-0.0862	-0.0318	-0.0441	0.0132	-0.0574	-0.0175	-0.0449	0.326	0.288	0.877	0.364	0.375	0.442	0.393	0.154	0.738	0.867	0.0784	0.411
Cc1c2c(nn1C)CSCc1cc(n(C)n1)CSc1cc(c3ccccc3c1)OCCCc1c(C(=O)O)n(C)c3c-2c(Cl)ccc13 [AZD5991] + C[C@@H](Nc1cc(F)cc(F)c1)c1cc(C(=O)N(C)C)cc2c(=O)cc(N3CCOCC3)oc12 [AZD8186] (first compound max 1 µM, 7x7, partner max 3 µM)	0.0622	-0.0213	0.0441	-0.0343	-0.0131	0.0081	-0.0006	-0.0253	0.252	1	0.659	0.17	0.275	0.565	0.313	0.276	0.8	1	0.482	0.0698
Cc1c2c(nn1C)CSCc1cc(n(C)n1)CSc1cc(c3ccccc3c1)OCCCc1c(C(=O)O)n(C)c3c-2c(Cl)ccc13 [AZD5991] + CCN(CCO)CCCOc1ccc2c(Nc3cc(CC(=O)Nc4cccc(F)c4)[nH]n3)ncnc2c1 [AZD2811] (first compound max 1 µM, 7x7, partner max 1 µM)	0.0561	0.0186	-0.0486	0.068	-0.0413	0.0704	0.0441	0.0307	0.2	1	0.787	0.244	0.655	0.449	0.288	0.313	0.346	1	0.907	0.464
NC1(C(=O)N[C@@H](CCO)c2ccc(Cl)cc2)CCN(c2ncnc3[nH]ccc23)CC1 [Capivasertib] + CCN(CCO)CCCOc1ccc2c(Nc3cc(CC(=O)Nc4cccc(F)c4)[nH]n3)ncnc2c1 [AZD2811] (first compound max 10 µM, 7x7, partner max 1 µM)	-0.0195	-0.0295	-0.079	0.066	-0.0813	0.0106	-0.0202	-0.0087	0.439	0.742	0.657	0.561	0.834	0.504	0.683	0.248	0.76	0.549	0.104	0.597
COc1cccc(OCCCN)c1-c1cc(Nc2cnc(C#N)cn2)n[nH]1 [Prexasertib] + O=C(c1cc(Cc2n[nH]c(=O)c3ccccc23)ccc1F)N1CCN(C(=O)C2CC2)CC1 [Olaparib] (first compound max 1 µM, 7x7, partner max 10 µM)	-0.0264	-0.0745	-0.0874	-0.0322	-0.0078	0.0401	-0.0407	-0.0213	0.478	0.674	0.802	0.576	0.787	0.837	0.376	0.345	0.705	1	0.646	0.865
Cc1c2c(nn1C)CSCc1cc(n(C)n1)CSc1cc(c3ccccc3c1)OCCCc1c(C(=O)O)n(C)c3c-2c(Cl)ccc13 [AZD5991] + C=CCn1c(=O)c2cnc(Nc3ccc(N4CCN(C)CC4)cc3)nc2n1-c1cccc(C(C)(C)O)n1 [AZD1775] (first compound max 1 µM, partner max 1 µM)	0.0284	-0.0317	0.0015	0.0066	-0.0027	0.0383	-0.0223	0.0092	0.593	1	0.82	0.223	0.749	0.545	0.216	0.276	0.88	1	0.631	0.863
NC1(C(=O)N[C@@H](CCO)c2ccc(Cl)cc2)CCN(c2ncnc3[nH]ccc23)CC1 [Capivasertib] + Cn1cnc2c(F)c(Nc3ccc(Br)cc3Cl)c(C(=O)NOCCO)cc21 [Selumetinib] (first compound max 10 µM, 7x7, partner max 10 µM)	0.0042	-0.0011	-0.092	0.0825	0.0055	0.0064	0.0989	-0.0583	0.531	0.4	0.496	0.914	0.653	0.512	0.957	0.244	0.882	0.605	0.281	0.205
COc1nnc2ccc(N3CCC(c4ccc(OCCN5CCN(C)C(=O)[C@H]5C)cc4)CC3)nn12 [AZD5153] + Cn1cnc2c(F)c(Nc3ccc(Br)cc3Cl)c(C(=O)NOCCO)cc21 [Selumetinib] (first compound max 1 µM, 7x7, partner max 10 µM)	0.0212	-0.0246	-0.029	0.0301	0.0098	0.0236	0.019	-0.0158	0.806	0.306	0.752	0.647	0.405	0.598	0.493	0.233	0.736	0.709	0.399	0.206
CCN(CCO)CCCOc1ccc2c(Nc3cc(CC(=O)Nc4cccc(F)c4)[nH]n3)ncnc2c1 [AZD2811] + C=CCn1c(=O)c2cnc(Nc3ccc(N4CCN(C)CC4)cc3)nc2n1-c1cccc(C(C)(C)O)n1 [AZD1775] (first compound max 1 µM, partner max 1 µM)	0.0516	-0.0052	-0.0387	0.058	0.0053	0.192	-0.0427	0.0031	0.481	0.373	0.841	0.169	0.716	0.41	0.205	0.143	0.755	0.931	0.241	0.798
CC(=O)c1c(C)c2cnc(Nc3ccc(N4CCNCC4)cn3)nc2n(C2CCCC2)c1=O [Palbociclib] + Cc1c2c(nn1C)CSCc1cc(n(C)n1)CSc1cc(c3ccccc3c1)OCCCc1c(C(=O)O)n(C)c3c-2c(Cl)ccc13 [AZD5991] (first compound max 10 µM, 7x7, partner max 1 µM)	-0.0757	0.0096	-0.0651	0.033	-0.0498	0.019	0.0232	-0.0335	0.247	0.993	0.62	0.329	0.389	0.2	0.249	0.171	0.815	0.994	0.693	0.295
CC1(C)CCC(CN2CCN(c3ccc(C(=O)NS(=O)(=O)c4ccc(NCC5CCOCC5)c([N+](=O)[O-])c4)c(Oc4cnc5[nH]ccc5c4)c3)CC2)=C(c2ccc(Cl)cc2)C1 [Venetoclax] + C[C@@H](Nc1cc(F)cc(F)c1)c1cc(C(=O)N(C)C)cc2c(=O)cc(N3CCOCC3)oc12 [AZD8186] (first compound max 1 µM, 7x7, partner max 3 µM)	-0.0295	-0.0636	0.0255	-0.0158	0.0347	-0.0199	-0.0321	-0.0539	0.126	0.175	0.839	0.133	0.166	0.641	0.315	0.203	0.668	0.805	0.0586	0.437
CS(=O)(=O)CCNCc1ccc(-c2ccc3ncnc(Nc4ccc(OCc5cccc(F)c5)c(Cl)c4)c3c2)o1 [Lapatinib] + C[C@@H](Oc1cc(-c2cnn(C3CCNCC3)c2)cnc1N)c1c(Cl)ccc(F)c1Cl [Crizotinib] (first compound max 10 µM, 7x7, partner max 10 µM)	-0.0643	-0.064	-0.0932	-0.0347	0.0298	-0.0579	-0.0129	-0.026	0.536	0.477	0.895	0.856	0.998	0.882	1	0.871	1	0.932	0.234	0.751
CC1(C)CCC(CN2CCN(c3ccc(C(=O)NS(=O)(=O)c4ccc(NCC5CCOCC5)c([N+](=O)[O-])c4)c(Oc4cnc5[nH]ccc5c4)c3)CC2)=C(c2ccc(Cl)cc2)C1 [Venetoclax] + C[C@@H]1COCCN1C2=NC(=NC(=C2)C3(CC3)[S@](=N)(=O)C)C4=C5C=CNC5=NC=C4 [AZD6738] (first compound max 1 µM, 7x7, partner max 10 µM)	0.0378	-0.0758	-0.0034	-0.0106	-0.0216	-0.0238	-0.0433	-0.0671	0.441	0.665	0.911	0.523	0.691	0.879	0.251	0.177	0.759	0.897	0.452	0.99
